Test results from ChEMBL document CHEMBL4680169, “Synthesis and bioevaluation of new vascular-targeting and anti-angiogenic thieno[2,3-d]pyrimidin-4(3H)-ones” (Eur J Med Chem, 2020).
The source made the active and inactive calls. The calls are words filed in the database; no cut-off is given here.

Columns and labels:
KB-V1 = test: cells; assay type: functional, cell-based; conditions: Homo sapiens, KB-V1, 72 h
Description: Cytotoxicity against multidrug resistant human KB-V1 cells assessed as inhibition of cell growth after 72 hrs by MTT assay

518A2 = test: cells; assay type: functional, cell-based; conditions: Homo sapiens, 518A2, 72 h
Description: Cytotoxicity against human 518A2 cells assessed as inhibition of cell growth after 72 hrs by MTT assay

HCT-116 [1] = test: cells; assay type: functional, cell-based; conditions: Homo sapiens, HCT-116, 72 h
Description: Cytotoxicity against wild type human HCT-116 cells assessed as inhibition of cell growth after 72 hrs by MTT assay

HCT-116 [2] = test: cells; assay type: functional, cell-based; conditions: Homo sapiens, HCT-116, 72 h; remark: listed apart in the source
Description: Cytotoxicity against human HCT-116 p53 mutant cells assessed as inhibition of cell growth after 72 hrs by MTT assay

EA.hy 926 [3] = test: cells; assay type: functional, cell-based; conditions: Homo sapiens, EA.hy 926, 72 h
Description: Cytotoxicity against human EA.hy 926 cells assessed as inhibition of cell growth after 72 hrs by MTT assay

Sus scrofa = species on record: Sus scrofa; test: Inhibition of porcine brain tubulin polymerization at 10 uM measured at 20 sec interval for 2 hrs by turbidometric method
Chorioallantoic membrane [4] = test: Antiangiogenic activity in chicken fertilized egg chorioallantoic membrane assessed as reduction in tube formation at 5 nmol incubated for 6 to 24 hrs by CAM assay; assay type: functional, tissue-based; conditions: Gallus gallus, time 6-24 hrs
EA.hy 926 [5] = test: Cell cycle arrest in human EA.hy926 cells assessed as accumulation at G2/M phase at 25 to 70 uM after 24 hrs by propidium iodide staining based flow cytometric analysis; assay type: functional; conditions: dose 25-70 µM
EA.hy 926 [6] = test: Induction of F-actin cytoskeleton disruption in human EA.hy926 cells at 50 nM assessed as formation of actin stress fibers measured after 3 hrs by DAPI staining based fluorescence microscopic analysis; assay type: cell-based
[7] = molecular target: CDK1/Cyclin A (Homo sapiens) (UniProt P06493+P20248); test: Inhibition of full length recombinant human CDK1/cyclin A2 expressed in baculovirus infected sf9 cells using histone H1 as substrate incubated for 15 mins in presence of ATP by ADP-Glo assay
EA.hy 926 [8] = test: Cell cycle arrest in human EA.hy926 cells assessed as accumulation at sub-G1 phase after 24 hrs by propidium iodide staining based flow cytometric analysis; assay type: functional
EA.hy 926 [9] = test: Vascular disruptive effect in human EA.hy926 cells at 250 nM incubated for 12 hrs by matrigel-based MTT assay; assay type: functional, cell-based
Danio rerio [10] = species on record: Danio rerio; test: Antiangiogenic activity in zebrafish embryo assessed as reduction in SIV at 250 nM incubated for 48 hrs by fluorescence microscopic analysis; assay type: functional; parameters: scale not given: the % may be the effect or the level left
cells = assay type: ADME, cell-based; conditions: Homo sapiens, HDFa, 72 h
Description: Cytotoxicity against human HDfa cells assessed as inhibition of cell growth after 72 hrs by MTT assay

Tubulin (Homo sapiens) [11] = molecular target: T1, Tubulin (Homo sapiens) (UniProt P68371+Q9H4B7+P0DPH7+P68366+Q13509+Q71U36+P04350+Q3ZCM7+P07437+P68363+Q9BQE3+Q6PEY2+Q13885+Q9BVA1+Q9BUF5); test: Induction of microtubule cytoskeleton disruption in human EA.hy926 cells at 25 nM measured after 24 hrs by DAPI staining based fluorescence microscopic analysis; assay type: cell-based; conditions: EA.hy 926
Danio rerio [12] = species on record: Danio rerio; test: Antiangiogenic activity in zebrafish embryo assessed as reduction in tube formation at 500 nM incubated for 48 hrs by fluorescence microscopic analysis; assay type: functional; parameters: scale not given: the % may be the effect or the level left
Tubulin (Homo sapiens) [13] = molecular target: T1, Tubulin (Homo sapiens); test: Induction of microtubule cytoskeleton disruption in human EA.hy926 cells at 50 nM assessed as mitotic catastrophe measured after 24 hrs by DAPI staining based fluorescence microscopic analysis; assay type: cell-based; conditions: EA.hy 926
EA.hy 926 [14] = test: Antiangiogenic activity in human EA.hy926 cells assessed as reduction in tube formation at 150 nM incubated for 6 hrs by matrigel-based MTT assay; assay type: functional, cell-based
Chorioallantoic membrane [15] = test: Vascular disruptive effect in chicken fertilized egg chorioallantoic membrane at 15 nmol incubated for 6 hrs by CAM assay; assay type: functional, tissue-based; conditions: Gallus gallus
Chorioallantoic membrane [16] = test: Vascular disruptive effect in chicken fertilized egg chorioallantoic membrane at 5 nmol incubated for 24 hrs by CAM assay; assay type: functional, tissue-based; conditions: Gallus gallus
Chorioallantoic membrane [17] = test: Vascular disruptive effect in chicken fertilized egg chorioallantoic membrane at 15 nmol incubated for 24 hrs by CAM assay; assay type: functional, tissue-based; conditions: Gallus gallus

CDK1/Cyclin A (Homo sapiens), sequence (P06493 whole entry, looked up): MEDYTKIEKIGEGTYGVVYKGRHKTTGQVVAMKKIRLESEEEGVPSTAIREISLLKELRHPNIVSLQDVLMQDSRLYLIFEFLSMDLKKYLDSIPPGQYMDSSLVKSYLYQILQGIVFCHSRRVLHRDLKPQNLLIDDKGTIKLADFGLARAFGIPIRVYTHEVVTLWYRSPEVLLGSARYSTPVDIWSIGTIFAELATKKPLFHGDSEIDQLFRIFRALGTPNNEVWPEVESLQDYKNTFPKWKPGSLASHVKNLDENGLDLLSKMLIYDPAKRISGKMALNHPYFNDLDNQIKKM
CDK1/Cyclin A (Homo sapiens), sequence (P20248 whole entry, looked up): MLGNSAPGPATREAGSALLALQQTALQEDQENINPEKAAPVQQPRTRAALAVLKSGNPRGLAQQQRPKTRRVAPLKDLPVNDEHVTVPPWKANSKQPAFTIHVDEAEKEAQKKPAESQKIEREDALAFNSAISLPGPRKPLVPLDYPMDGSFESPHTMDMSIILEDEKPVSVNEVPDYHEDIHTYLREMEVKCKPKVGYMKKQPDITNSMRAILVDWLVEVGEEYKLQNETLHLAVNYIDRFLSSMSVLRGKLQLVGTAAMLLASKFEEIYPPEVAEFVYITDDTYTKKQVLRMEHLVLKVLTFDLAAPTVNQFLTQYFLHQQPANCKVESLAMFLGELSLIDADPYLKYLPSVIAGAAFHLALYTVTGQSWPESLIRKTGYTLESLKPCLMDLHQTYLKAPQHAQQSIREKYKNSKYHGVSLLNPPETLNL

| Compound | IC50 (KB-V1) | IC50 (518A2) | IC50 (HCT-116 [1]) | IC50 (HCT-116 [2]) | IC50 (EA.hy 926 [3]) | also measured |
| --- | --- | --- | --- | --- | --- | --- |
| COc1cc(-c2nc3sc4c(c3c(=O)[nH]2)CCCCC4)cc(Br)c1OC | 0.3 µM | 0.2 µM | 0.8 µM | 0.3 µM | 0.3 µM | – |
| COc1cc(-c2nc3sc4c(c3c(=O)[nH]2)CCNC4)cc(Cl)c1OC | 17 µM | 16.4 µM | > 100 µM | 10.8 µM | 6.3 µM | – |
| COc1cc(-c2nc3sc4c(c3c(=O)[nH]2)CCCCC4)cc(Cl)c1OC | 0.7 µM | 0.7 µM | 0.3 µM | 0.8 µM | 0.2 µM | – |
| COc1cc(-c2nc3sc4c(c3c(=O)[nH]2)CCN(C(C)=O)C4)cc(I)c1OC | 0.6 µM | 0.3 µM | 0.2 µM | 0.4 µM | 0.1 µM | inhibition (Sus scrofa): Active |
| CCOC(=O)N1CCc2c(sc3nc(-c4cccc(C#N)c4)[nH]c(=O)c23)C1 | 7.1 µM | 4.1 µM | 4.9 µM | 4.3 µM | 12.5 µM | – |
| COc1cc(-c2nc3sc4c(c3c(=O)[nH]2)CCCC4)cc(I)c1OC | 0.1 µM | 0.1 µM | 0.2 µM | 0.1 µM | 0.2 µM | Activity (Chorioallantoic membrane [4]): Active; Activity (EA.hy 926 [5]): Active; Activity (EA.hy 926 [6]): Active; inhibition (Sus scrofa): Active; inhibition [7]: Active; Activity (EA.hy 926 [8]): Dose-dependent effect; Activity (EA.hy 926 [9]): Active; Activity (Danio rerio [10]): 18%; IC50 (cells): > 100 µM; Activity (Tubulin (Homo sapiens) [11]): inactive; Activity (Danio rerio [12]): 28%; Activity (Tubulin (Homo sapiens) [13]): Active; Activity (EA.hy 926 [14]): Active; Activity (Chorioallantoic membrane [15]): Active |
| N#Cc1cccc(-c2nc3sc4c(c3c(=O)[nH]2)CCCCC4)c1 | 18.2 µM | 9.4 µM | 3.8 µM | 1 µM | 13.1 µM | – |
| COc1cc(-c2nc3sc4c(c3c(=O)[nH]2)CCCCC4)cc(I)c1OC | 0.6 µM | 0.2 µM | 0.3 µM | 0.2 µM | 0.2 µM | – |
| COc1cc(-c2nc3sc4c(c3c(=O)[nH]2)CCNC4)cc(I)c1OC | 2.5 µM | 1.4 µM | 1 µM | 0.8 µM | 1 µM | inhibition (Sus scrofa): Active |
| COc1ccc(/C=C\c2cc(OC)c(OC)c(OC)c2)cc1O [COMBRETASTATIN A4] | 0.004 µM | 0.02 µM | 0.003 µM | 0.002 µM | 0.01 µM | Activity (EA.hy 926 [6]): Active; Activity (EA.hy 926 [8]): Dose-dependent effect; Activity (Chorioallantoic membrane [16]): Active; IC50 (cells): > 100 µM; Activity (Tubulin (Homo sapiens) [11]): Active |
| COc1c(Br)cc(-c2nc3sc4c(c3c(=O)[nH]2)CCNC4)cc1Br | 6.2 µM | 5.8 µM | 1.5 µM | 1.5 µM | 1 µM | – |
| O=c1[nH]c(-c2cccc(Br)c2)nc2sc3c(c12)CCNC3 | 2.2 µM | 1.7 µM | 1.6 µM | 1.4 µM | 1.6 µM | – |
| O=c1[nH]c(-c2cccc(Br)c2)nc2sc3c(c12)CCCCC3 | > 100 µM | > 100 µM | > 100 µM | > 100 µM | > 100 µM | – |
| COc1cc(-c2nc3sc4c(c3c(=O)[nH]2)CCNC4)cc(OC)c1OC | > 100 µM | > 100 µM | > 100 µM | > 100 µM | 100 µM | – |
| COc1c(Br)cc(-c2nc3sc4c(c3c(=O)[nH]2)CCCCC4)cc1Br | 1.4 µM | 0.4 µM | 0.9 µM | 1 µM | 1 µM | – |
| N#Cc1cccc(-c2nc3sc4c(c3c(=O)[nH]2)CCCC4)c1 | 1.9 µM | 0.3 µM | 0.7 µM | 0.2 µM | 1.2 µM | – |
| COc1cc(-c2nc3sc4c(c3c(=O)[nH]2)CCCC4)cc(Cl)c1OC | 0.3 µM | 0.4 µM | 0.5 µM | 1 µM | 0.4 µM | – |

| Compound | IC50 (KB-V1) | IC50 (518A2) | IC50 (HCT-116 [1]) | IC50 (HCT-116 [2]) | IC50 (EA.hy 926 [3]) | also measured |
| --- | --- | --- | --- | --- | --- | --- |
| C=CC(=O)N1CCc2c(sc3nc(-c4cc(Br)c(OC)c(OC)c4)[nH]c(=O)c23)C1 | 1.9 µM | 0.7 µM | 4.3 µM | 4.6 µM | 0.9 µM | – |
| O=c1[nH]c(-c2cc(F)cc(F)c2)nc2sc3c(c12)CCNC3 | 6.5 µM | 5.7 µM | 6.9 µM | 3.6 µM | 5.4 µM | – |
| O=c1[nH]c(-c2cc(F)cc(F)c2)nc2sc3c(c12)CCCCC3 | > 100 µM | > 100 µM | > 100 µM | > 100 µM | > 100 µM | – |
| COc1cc(-c2nc3sc4c(c3c(=O)[nH]2)CCNC4)cc(Br)c1OC | 2 µM | 9.3 µM | 10.6 µM | 7.4 µM | 11.5 µM | – |
| COc1c(Br)cc(-c2nc3sc4c(c3c(=O)[nH]2)CCCC4)cc1Br | 0.7 µM | 2.4 µM | 0.8 µM | 0.7 µM | 1 µM | – |
| COc1ccc(-c2nc3sc4c(c3c(=O)[nH]2)CCNC4)cc1 | 6.7 µM | 3.8 µM | 4 µM | 2.2 µM | 3.8 µM | – |
| COc1cc(-c2nc3sc4c(c3c(=O)[nH]2)CCN(C(C)=O)C4)cc(Br)c1OC | 2.8 µM | 0.5 µM | 0.4 µM | 0.5 µM | 0.9 µM | – |
| CCOC(=O)N1CCc2c(sc3nc(-c4cc(Br)c(OC)c(OC)c4)[nH]c(=O)c23)C1 | 0.3 µM | 0.5 µM | 0.4 µM | 0.5 µM | 0.2 µM | – |
| C=CC(=O)N1CCc2c(sc3nc(-c4cc(I)c(OC)c(OC)c4)[nH]c(=O)c23)C1 | 1.2 µM | 0.2 µM | 2 µM | 0.7 µM | 0.4 µM | inhibition (Sus scrofa): Active |
| CCOC(=O)N1CCc2c(sc3nc(-c4cc(I)c(OC)c(OC)c4)[nH]c(=O)c23)C1 | 0.1 µM | 0.1 µM | 0.3 µM | 0.1 µM | 0.1 µM | Activity (Chorioallantoic membrane [4]): Active; Activity (EA.hy 926 [5]): Active; Activity (EA.hy 926 [6]): Active; inhibition (Sus scrofa): Active; Activity (Chorioallantoic membrane [17]): inactive; inhibition [7]: Active; Activity (EA.hy 926 [8]): Dose-dependent effect; Activity (EA.hy 926 [9]): Active; Activity (Chorioallantoic membrane [16]): Active; IC50 (cells): 13.1 µM; Activity (Tubulin (Homo sapiens) [11]): inactive; Activity (Tubulin (Homo sapiens) [13]): Active; Activity (EA.hy 926 [14]): Active |
| COc1cc(-c2nc(O)c3c4c(sc3n2)CCCC4)cc(OC)c1OC | 0.2 µM | 0.2 µM | 5.5 µM | 0.3 µM | 0.4 µM | Activity (EA.hy 926 [6]): inactive; IC50 (cells): > 100 µM; Activity (Tubulin (Homo sapiens) [11]): inactive; Activity (Tubulin (Homo sapiens) [13]): Active |
| CCOC(=O)N1CCc2c(sc3nc(-c4cccnc4)[nH]c(=O)c23)C1 | 35.2 µM | 80 µM | 32.5 µM | 39.1 µM | 100 µM | – |
| CCOC(=O)N1CCc2c(sc3nc(-c4ccc(OC)c(O)c4)[nH]c(=O)c23)C1 | 2.2 µM | 2.3 µM | 1.8 µM | 5.6 µM | 4.5 µM | – |
| CCOC(=O)N1CCc2c(sc3nc(-c4cc(F)cc(F)c4)[nH]c(=O)c23)C1 | 5.3 µM | 5.2 µM | 1.6 µM | 4.2 µM | 4 µM | – |
| COc1cc(-c2nc3sc4c(c3c(=O)[nH]2)CCCC4)cc(Br)c1OC | 0.3 µM | 0.3 µM | 0.4 µM | 0.5 µM | 0.3 µM | – |
| CCOC(=O)N1CCc2c(sc3nc(-c4cc(OC)c(OC)c(OC)c4)[nH]c(=O)c23)C1 | 0.8 µM | 0.2 µM | 0.6 µM | 0.5 µM | 0.2 µM | – |
